Measured values reported in patent US11286268B1, “EIF4E-inhibiting compounds and methods” (EFFECTOR THERAPEUTICS, INC., priority 2019, dated 2022).
Read-outs that look alike come from different tables or passages of the source.

Molecular target: recombinant eIF4E (Homo sapiens (Human), UniProt P06730)
Assay: Fluorescence polarization competition assay for eIF4E binding potency
How it was run: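 Competitive displacement format: compounds compete with a fluorescent m7GDP tracer (20 nM) for 75 nM recombinant eIF4E. Incubation is 30 min at room temperature, protected from light, with 1% DMSO. Polarization read gives IC50 over eight 3-fold concentrations.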

[1] = fluorescence polarization competition, 75 nM recombinant eIF4E, 20 nM EDA-m7GDP-ATTO-550, IC50 class, read-out: elF4E FP
[2] = inhibition of eIF4E/EDA-m7GDP-ATTO-550 binding by 50%, Table 4B calculated values, read-out: IC50

Sequence of recombinant eIF4E (P06730 whole entry): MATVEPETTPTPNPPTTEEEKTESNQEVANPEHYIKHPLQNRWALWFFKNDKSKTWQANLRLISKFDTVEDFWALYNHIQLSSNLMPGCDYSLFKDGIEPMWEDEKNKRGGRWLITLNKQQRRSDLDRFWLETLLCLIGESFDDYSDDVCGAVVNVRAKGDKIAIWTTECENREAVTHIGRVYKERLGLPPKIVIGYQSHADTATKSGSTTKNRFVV

| IC50 [1] [nM] | IC50 [2] [nM] | SMILES |
| --- | --- | --- |
| < 50 | 24.6 | Cc1nc2c(N(C)C3CCN(CC(F)(F)F)CC3)ncc(C#N)c2c(=O)n1CCOc1ccc(Cl)cc1-c1ccnc2c(C(=O)O)csc12 [compound 861] |
| < 50 | 20.9 | Cc1nc2c(N(C)C3CCN(C)CC3F)ncc(C#N)c2c(=O)n1CCOc1ccc(Cl)cc1-c1ccnc2c(C(=O)O)csc12 (centres unmarked) [compound 862] |
| < 50 | 47.9 | Cc1nc2c(N(C)C3CCN(C)C(C(F)F)C3)ncc(C#N)c2c(=O)n1CCOc1ccc(Cl)cc1-c1ccnc2c(C(=O)O)csc12 (centres unmarked) [compound 864] |
| < 50 | 28.4 | Cc1nc2cnc(N(C)C3CCN(CC(F)(F)F)CC3)c(C#N)c2c(=O)n1CCOc1ccc(Cl)cc1-c1ccnc2c(C(=O)O)csc12 [compound 865] |
| < 50 | 16.8 | Cc1nc2cnc(N(C)C3CCN(C)C(C(F)F)C3)c(C#N)c2c(=O)n1CCOc1ccc(Cl)cc1-c1ccnc2c(C(=O)O)csc12 (centres unmarked) [compound 866] |
| < 50 | 6.61 | Cc1cc(-c2cc(Cl)ccc2OCCn2c(C)nc3cc(C(F)(F)F)c(N4CCS(=O)(=O)CC4)c(C#N)c3c2=O)c2scc(C(=O)O)c2n1 [compound 867] |
| < 50 | 25.4 | Cc1cc(-c2cc(Cl)ccc2OCCn2c(C)nc3cnc(OC4CNC4)c(C#N)c3c2=O)c2sc(C)c(C(=O)O)c2n1 [compound 869] |
| < 50 | – | Cc1cc(-c2cc(Cl)ccc2OCCn2c(C)nc3c(C)nc(-c4c(C)cccc4F)c(C#N)c3c2=O)c2scc(C(=O)O)c2n1 [compound 871] |
| < 50 | – | Cc1cc(-c2cc(Cl)ccc2OCCn2c(C)nc3c(C)nc(-c4c(C)cccc4C)c(C#N)c3c2=O)c2scc(C(=O)O)c2n1 [compound 872] |
| < 50 | 15.7 | Cc1cc(-c2ncc3nc(C)n(CCOc4ccc(Cl)cc4-c4cc(C)nc5c(C(=O)O)csc45)c(=O)c3c2C#N)cc(C)n1 [compound 873] |
| < 50 | 41.5 | Cc1cc(-c2cc(Cl)ccc2OCCn2c(C)nc3c(C)nc(-c4cnc(N)cc4F)c(C#N)c3c2=O)c2scc(C(=O)O)c2n1 [compound 874] |
| < 50 | – | Cc1cc(-c2cc(Cl)ccc2OCCn2c(C)nc3c(C)nc(N4CCN(C)CC4)c(C#N)c3c2=O)c2scc(C(=O)O)c2n1 [compound 875] |
| 50 to 1000 | 73.3 | Cc1cc(-c2cc(Cl)ccc2OCCn2c(C)nc3cc(C(F)(F)F)c(Br)c(C#N)c3c2=O)c2scc(C(=O)O)c2n1 [compound 876] |
| 50 to 1000 | 234 | Cc1cc(-c2cc(Cl)ccc2OCCn2c(C)nc3cc(C(F)(F)F)c(C4CCNCC4)cc3c2=O)c2sc(C)c(C(=O)O)c2n1 [compound 877] |
| < 50 | 9.63 | Cc1cc(-c2cc(Cl)ccc2OCCn2c(C)nc3c(C)nc(N4CCNCC4)c(C#N)c3c2=O)c2scc(C(=O)O)c2n1 [compound 878] |
| < 50 | 7.31 | Cc1cc(-c2cc(Cl)ccc2OCCn2c(C)nc3cc(C(F)(F)F)c(N4CCNCC4)c(C#N)c3c2=O)c2sc(C)c(C(=O)O)c2n1 [compound 879] |
| 50 to 1000 | 67.9 | Cc1nc2cc(C(F)(F)F)c(C3CCNCC3)cc2c(=O)n1CCOc1ccc(Cl)cc1-c1ccnc2c(C(=O)O)csc12 [compound 880] |
| < 50 | 20.4 | Cc1nc2cc(C(F)(F)F)c(C3CCN(C)CC3)cc2c(=O)n1CCOc1ccc(Cl)cc1-c1ccnc2c(C(=O)O)csc12 [compound 881] |
| < 50 | 6.62 | Cc1nc2cnc(C3=CCC(F)(F)CC3)c(C#N)c2c(=O)n1CCOc1ccc(Cl)cc1-c1ccnc2c(C(=O)O)csc12 [compound 882] |
| < 50 | 12.8 | Cc1cc(-c2cc(Cl)ccc2OCCn2c(C)nc3cnc(N4CC[C@@H](O)C4)c(C#N)c3c2=O)c2scc(C(=O)O)c2n1 [compound 883] |
| < 50 | 5.85 | Cc1cc(-c2cc(Cl)ccc2OCCn2c(C)nc3cnc(N4CCC(=O)C4)c(C#N)c3c2=O)c2scc(C(=O)O)c2n1 [compound 884] |
| < 50 | 10.5 | Cc1nc(N2CCN(CC(F)(F)F)CC2)c(C#N)c2c(=O)n(CCOc3ccc(Cl)cc3-c3ccnc4c(C(=O)O)csc34)c(C)nc12 [compound 886] |
| < 50 | 20.1 | Cc1sc2c(-c3cc(Cl)ccc3OCCn3c(C)nc4cc(C(F)(F)F)c(C5CCNCC5)c(C#N)c4c3=O)ccnc2c1C(=O)O [compound 887] |
| < 50 | 40.2 | Cc1nc2cnc(C3=CCN(C)CC3)c(C#N)c2c(=O)n1CCOc1ccc(Cl)cc1-c1ccnc2c(C(=O)O)csc12 [compound 888] |
| < 50 | 12.4 | Cc1nc2cnc(C3=CCN(CC(F)(F)F)CC3)c(C#N)c2c(=O)n1CCOc1ccc(Cl)cc1-c1ccnc2c(C(=O)O)csc12 [compound 889] |

| IC50 [1] [nM] | IC50 [2] [nM] | SMILES |
| --- | --- | --- |
| < 50 | 13.7 | Cc1nc2cnc(O)c(C#N)c2c(=O)n1CC#Cc1ccc(Cl)cc1-c1ccnc2c(C(=O)O)csc12 [compound 891] |
| < 50 | 36 | Cc1nc2cnc(N3CC4(CN(CCF)C4)C3)c(C#N)c2c(=O)n1CC#Cc1ccc(Cl)cc1-c1ccnc2c(C(=O)O)csc12 [compound 892] |
| < 50 | 20.1 | Cc1nc2cnc(N3CC4(CN(CC(F)F)C4)C3)c(C#N)c2c(=O)n1CC#Cc1ccc(Cl)cc1-c1ccnc2c(C(=O)O)csc12 [compound 893] |
| < 50 | 21.6 | Cc1nc2cnc(N3CC4(CN(CCOC(F)(F)F)C4)C3)c(C#N)c2c(=O)n1CC#Cc1ccc(Cl)cc1-c1ccnc2c(C(=O)O)csc12 [compound 894] |
| < 50 | 22.9 | Cc1nc2cnc(N3CCN(CC4CC4)CC3)c(C#N)c2c(=O)n1CC#Cc1ccc(Cl)cc1-c1ccnc2c(C(=O)O)csc12 [compound 895] |
| – | 1.57 | CCc1cc(-c2cc(Cl)ccc2OCCn2c(C)nc3cc(CN(C)C)c(OC(F)F)c(C#N)c3c2=O)c2scc(C(=O)O)c2n1 [compound 896] |
| < 50 | 1.4 | COc1ncc2nc(C)n(CCOc3ccc(Cl)cc3-c3cc(C)nc4c(C(=O)O)csc34)c(=O)c2c1C#N [compound 897] |
| < 50 | 7.44 | Cc1sc2c(-c3cc(Cl)ccc3OCCn3c(C)nc4cc(C(F)(F)F)c(C)c(C#N)c4c3=O)cn(C)c(=O)c2c1C(=O)O [compound 899] |
| < 50 | 11.2 | Cc1ncc(-c2cc(Cl)ccc2OCCn2c(C)nc3cnc(C4CC4)c(C#N)c3c2=O)c2scc(C(=O)O)c12 [compound 900] |
| < 50 | 45.6 | Cc1cc(-c2cc(Cl)ccc2OCCn2c(C)nc3cc(C(F)(F)F)c(-c4ccncc4C)c(C#N)c3c2=O)c2scc(C(=O)O)c2n1 [compound 901] |
| < 50 | 14.2 | Cc1cnc(C)c(-c2c(C(F)(F)F)cc3nc(C)n(CCOc4ccc(Cl)cc4-c4cc(C)nc5c(C(=O)O)csc45)c(=O)c3c2C#N)c1 [compound 902] |
| < 50 | 11.2 | Cc1cc(-c2cc(Cl)ccc2OCCn2c(C)nc3cc(C(F)(F)F)c(-c4cncc(C)c4C)c(C#N)c3c2=O)c2scc(C(=O)O)c2n1 [compound 903] |
| < 50 | 4.19 | Cc1cc(-c2cc(Cl)ccc2OCCn2c(C)nc3cc(C(F)(F)F)c(-c4ccc(C)c(C)n4)c(C#N)c3c2=O)c2scc(C(=O)O)c2n1 [compound 904] |
| < 50 | 9.38 | Cc1cc(C)nc(-c2c(C(F)(F)F)cc3nc(C)n(CCOc4ccc(Cl)cc4-c4cc(C)nc5c(C(=O)O)csc45)c(=O)c3c2C#N)c1 [compound 905] |
| < 50 | 17.6 | Cc1ccc(C)c(-c2c(C(F)(F)F)cc3nc(C)n(CCOc4ccc(Cl)cc4-c4cc(C)nc5c(C(=O)O)csc45)c(=O)c3c2C#N)n1 [compound 906] |
| < 50 | 7.76 | Cc1cc(-c2cc(Cl)ccc2OCCn2c(C)nc3cc(C(F)(F)F)c(-c4cn(C)cn4)c(C#N)c3c2=O)c2scc(C(=O)O)c2n1 [compound 907] |
| < 50 | 3.26 | Cc1cc(-c2cc(Cl)ccc2C#CCn2c(C)nc3cc(C(F)(F)F)c(-c4ccncn4)c(C#N)c3c2=O)c2scc(C(=O)O)c2n1 [compound 908] |
| < 50 | 13.2 | Cc1cc(-c2cc(Cl)ccc2OCCn2c(C)nc3cc(C(F)(F)F)c(CC(=O)N(C)C)c(C#N)c3c2=O)c2scc(C(=O)O)c2n1 [compound 909] |
| < 50 | 17.5 | Cc1cc(-c2cc(Cl)ccc2OCCn2c(C)nc3c(-c4ccccc4)nc(C4CC4)c(C#N)c3c2=O)c2scc(C(=O)O)c2n1 [compound 910] |
| < 50 | 17.1 | Cc1cc(-c2nc(C)c3nc(C)n(CCOc4ccc(Cl)cc4-c4cc(C)nc5c(C(=O)O)csc45)c(=O)c3c2C#N)ccn1 [compound 911] |
| < 50 | 8.98 | Cc1cc(-c2cc(Cl)ccc2OCCn2c(C)nc3cnc(C4CCC4)c(C#N)c3c2=O)c2scc(C(=O)O)c2n1 [compound 912] |
| < 50 | 16.2 | Cc1cc(-c2cc(Cl)ccc2OCCn2c(C)nc3cnc(C(C)(F)F)c(C#N)c3c2=O)c2scc(C(=O)O)c2n1 [compound 913] |
| < 50 | 20.7 | Cc1cc(-c2cc(Cl)ccc2OCCn2c(C)nc3cnc(C(F)F)c(C#N)c3c2=O)c2scc(C(=O)O)c2n1 [compound 914] |
| < 50 | 11 | Cc1nc2cnc(C3CC3)c(C#N)c2c(=O)n1CCOc1ccc(Cl)cc1-c1cc(CF)nc2c(C(=O)O)csc12 [compound 917] |

| SMILES | IC50 [1] [nM] | IC50 [2] [nM] |
| --- | --- | --- |
| Cc1nc2c(N(C)C3CC4CCC(C3)N4C)ncc(C#N)c2c(=O)n1CCOc1ccc(Cl)cc1-c1ccnc2c(C(=O)O)csc12 (centres unmarked) [compound 863] | < 50 | 45.5 |
| Cc1cc(-c2cc(Cl)ccc2OCCn2c(C)nc3cnc(N4CC5CCC(C4)N5C)c(C#N)c3c2=O)c2sc(C)c(C(=O)O)c2n1 [compound 868] | < 50 | 17.2 |
